Results on one compound are retold here after patent US11279931B2, “Therapeutic agent for a lung disease and/or method for screening for the same” (Chugai Seiyaku Kabushiki Kaisha, priority 2015, dated 2022).

Holding throughout (type): cell-based, C57BL/6 mice
In assay [1] the test system is IL-6 mRNA. The experiment in a line: IL-6 mRNA expression by qPCR in LPS-stimulated peritoneal macrophages. Conditions: test agent 20 μM, LPS (1 g/mL), vs absence of CPZ (FIG. 10). The method, then: (§1) Peritoneal macrophages from C57BL/6 mice (aged 6 to 8 weeks) were stimulated with LPS ([…]) in the presence or absence of a test agent (20 μM). The relative expression levels of mRNAs of Arid5A, IL-6, and TNF-α were determined in the stimulated peritoneal macrophages by quantitative PCR (qPCR). The expression level of Arid5A mRNA was determined 2 hours after LPS stimulation. The expression levels of IL-6 mRNA and TNF-α mRNA were determined 2 hours, 6 hours, 12 hours, and 24 hours after LPS stimulation. FIGS. 9 to 11 show the results when chlorpromazine (CPZ) was used as a test agent.

In assay [2] the test system is Arid5A mRNA. As to the kind of experiment: Arid5A mRNA expression by qPCR in LPS-stimulated peritoneal macrophages. Conditions: test agent 20 μM, LPS (1 g/mL), 2 hours after LPS stimulation, vs absence of CPZ (FIG. 9). On the procedure:
as §1

In assay [3] the test system is TNF-α mRNA. The experiment in a line: TNF-α mRNA expression by qPCR in LPS-stimulated peritoneal macrophages. Conditions: test agent 20 μM, LPS (1 g/mL), determined 2, 6, 12 and 24 hours after LPS stimulation (FIG. 11). The method, then: as §1

`CN(C)CCCN1c2ccccc2Sc2ccc(Cl)cc21` [CPZ, chlorpromazine]: the “expression of IL-6 mRNA” value in assay [1] (2 hours after LPS stimulation) and in assay [1] (6 hours after LPS stimulation) was “markedly suppressed” throughout. Moreover, the “expression of Arid5A mRNA” value in assay [2] is listed as “markedly suppressed”. In assay [3], the “expression of TNF-α mRNA” value is “no effect”.
